In paper PMC6420960 (Science translational medicine, 2015):
“Also recorded” adds a separate entry of the source. Structures can show the parent of a compound that is named as a salt. Where two headings read alike, the source gives them in different places.

Legend:
HIV = settings: cited from earlier work
HCV-Luc [1] = test: HCV-Luc infection assay; settings: for EC90: read-out: HCV-Luc EC90; for anti-HCV activity (in words): NPC screen / confirmation assays; for selectivity ratio: human
[2] = test system: wild-type HCVcc (genotype 2a, JFH-1 strain); type: cell-based, Hepatitis C virus; settings: 10 μM; compared with DMSO treatment
ATPlite assay = settings: human, Huh7.5.1 cells
H1-histamine receptor = H1-histamine receptor (Homo sapiens, UniProt P35367); test: β-arrestin H1-histamine receptor assay; type: cell-based
H1-histamine receptor, sequence (P35367 whole entry): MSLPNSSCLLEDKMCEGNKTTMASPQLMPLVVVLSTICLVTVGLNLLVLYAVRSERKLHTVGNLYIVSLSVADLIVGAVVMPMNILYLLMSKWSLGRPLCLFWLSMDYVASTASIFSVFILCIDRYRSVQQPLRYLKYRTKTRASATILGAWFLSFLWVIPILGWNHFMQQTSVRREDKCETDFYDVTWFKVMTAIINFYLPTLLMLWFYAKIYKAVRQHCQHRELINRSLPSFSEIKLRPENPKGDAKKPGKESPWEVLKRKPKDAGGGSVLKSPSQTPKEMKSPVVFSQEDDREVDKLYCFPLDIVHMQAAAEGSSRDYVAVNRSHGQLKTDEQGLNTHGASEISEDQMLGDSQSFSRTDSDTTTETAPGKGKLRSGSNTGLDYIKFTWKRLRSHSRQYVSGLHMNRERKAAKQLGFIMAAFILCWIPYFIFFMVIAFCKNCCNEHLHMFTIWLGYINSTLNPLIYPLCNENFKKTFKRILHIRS

Huh7.5.1 cells [3] = test system: Huh7.5.1 cells
[4] = test system: genotype 1a replicon in Huh7.5.1 cells; type: cell-based, Hepatitis C virus; settings: 10 μM
[5] = test system: dengue reporter virus particle; test: Dengue reporter virus particle; type: cell-based; settings: read-out: EC50 in dengue RVP assay
[6] = test system: hepatitis B virus, HCV replicon, herpes simplex virus-1, human cytomegalovirus, vaccinia virus, dengue virus, influenza A (H1N1) virus, respiratory syncytial …; type: cell-based
HCV-Luc [7] = test: HCV-Luc assay in 40% human serum; type: cell-based, Hepatitis C virus; settings: read-out: protein binding adjusted EC50
[8] = Cytotoxicity in the dengue RVP assay; type: cell-based
HCVsc, genotype 2a = type: cell-based, Hepatitis C virus; settings: 10 μM
HCV-Luc [9] = test: Time-of-addition experiment; type: cell-based, Hepatitis C virus; settings: for inhibitory kinetics, time-of-addition profile: bafilomycin A1 10 nM, sofosbuvir 10 μM, 2-hour incubations; for effect on viral level, time of addition: treatment during the attachment step
[10] = test system: genotype 1b and 2a HCV replicon cell lines; type: cell-based, Hepatitis C virus; settings: 10 μM
wild-type HCVcc = type: cell-based, Hepatitis C virus; settings: primary human hepatocytes; titration, dose-dependent manner
HCVpp genotype 1a and 1b = type: cell-based, Hepatitis C virus; settings: 10 μM; Huh7.5.1 cells
[11] = Mouse pharmacokinetics and tissue distribution, single intraperitoneal dose; settings: for brain levels (in words): (S)-CCZ 50 mg/kg, (S)-nor-CCZ 10 mg/kg, single intraperitoneal dose
Huh7.5.1 cells [12] = test system: Huh7.5.1 cells; remark: listed apart in the source
[13] = test system: HCV chimeric genotype viruses (1a, 1b, 2a, 2b, 3a, 4a, 5a, 6a, and 7a); test: HCV chimeric genotype virus infection of Huh7.5.1 cells; type: cell-based, Hepatitis C virus; settings: 10 μM
HCV genotype 1b = type: in vivo, Alb-uPA/SCID mice engrafted with primary human hepatocytes
[14] = day 28
[15] = mouse, in vivo, ip, 10 mg/kg
HCV-Luc [16] = test: In vitro combination evaluation; settings: for CalcuSyn CI value: in combination with (S)-CCZ at or near their EC50 values; for MacSynergy Log volume: in combination with (S)-CCZ, Bliss independence model
[17] = Microsomal stability assay, human microsomes; type: in vitro ADME
[18] = Microsomal stability assay, mouse microsomes; type: in vitro ADME
[19] = read-out: HCV-Luc EC50, Huh7.5.1 cells, luciferase signal 48 hours after treatment
[20] = Huh7.5.1 cells, luciferase signal 48 hours after treatment

Molecule: CN1CCN(C(c2ccccc2)c2ccc(Cl)cc2)CC1 (racemic) [Racemic CCZ, chlorcyclizine HCl]
- activity against HIV (HIV): reported activity against HIV
- EC50 (HCV-Luc [1]; Hepatitis C virus): ~50 nM
- EC50 (HCV-Luc [1]; Hepatitis C virus, Huh-7.5.1, 48 h, read-out: HCV-Luc EC50): 44 ± 11 nM
- EC90 (HCV-Luc [1]; Hepatitis C virus, Huh-7.5.1, 48 h): 1400 ± 450 nM
- Intracellular and extracellular viral RNA levels [2]: significantly reduced
- CC50 (ATPlite assay): 49800 ± 17200 nM
- Antihistamine activity at 10 nM (H1-histamine receptor): 72.60%

Molecule: CN1CCN([C@H](c2ccccc2)c2ccc(Cl)cc2)CC1 [(R)-CCZ]
- EC50 (HCV-Luc [1]; [19]): 20 ± 5 nM
- EC90 (HCV-Luc [1]; [20]): 1090 ± 370 nM
- Intracellular and extracellular viral RNA levels [2]: significantly reduced
- Antihistamine activity at 10 nM (H1-histamine receptor): 88.00%
- CC50 (Huh7.5.1 cells [3]): 37500 ± 4150 nM

Molecule: CN1CCN([C@@H](c2ccccc2)c2ccc(Cl)cc2)CC1 [(S)-CCZ]
- HCV replication, transient replicon [4]: not inhibited
- EC50 [5]: 1880 nM
- EC50 (HCV-Luc [1]; [19]): 24 ± 9 nM
- EC90 (HCV-Luc [1]; [20]): 1440 ± 430 nM
- antiviral activity in NIAID antiviral screen [6]: little or no antiviral activity
- Intracellular and extracellular viral RNA levels [2]: significantly reduced
- EC50 (HCV-Luc [7]): 240 nM
- CC50 [8]: > 31600 nM
- inhibitory activity in the HCVsc assay (HCVsc, genotype 2a): strong inhibitory activity
- inhibition of infection, time of addition (HCV-Luc [9]; added 2 or 3 hours after entry): no significant inhibition
- inhibition of infection, time of addition (HCV-Luc [9]; added 1 hour after synchronous entry): Less inhibitory effect
- inhibition of infection, time of addition (HCV-Luc [9]; added during viral attachment at 4°C for 2 hours or during the first 2 hours of synchronous entry at 37°C): potent inhibition
- inhibitory effect on HCV replicon [10]: did not exert a significant inhibitory effect
- intracellular HCV RNA level (wild-type HCVcc): inhibited
- inhibitory effect on HCVpp entry (HCVpp genotype 1a and 1b): no significant inhibitory effect
- Antihistamine activity at 10 nM (H1-histamine receptor): 41.70%
- ratio of liver to plasma ([11]; 50 mg/kg intraperitoneal, assuming liver density 1.0 g/ml): 29.6
- brain levels (in words) [11]: comparable to liver levels
- cytotoxicity after continuous treatment for 21 days (Huh7.5.1 cells [12]; 10 μM): low cytotoxicity
- cytotoxicity after continuous treatment for 21 days (Huh7.5.1 cells [12]; 1.0 and 5.0 μM): no cytotoxicity
- extracellular HCV RNA levels and infectivity (TCID50/ml) [13]: inhibited
- decrease of genotype 1b virus titer (HCV genotype 1b; 2 mg/kg daily for 4 weeks): about 1 log
- reduction of HCV titers from pretreatment baseline (HCV genotype 1b; 50 and 10 mg/kg daily for 4 weeks, genotype 1b): 2 log
- HCV titers during the treatment period (drug resistance) (HCV genotype 1b; genotype 1b and 2a infections): without rebound
- liver to plasma ratio ([14]; 2 mg/kg group): 38
- liver to plasma ratio ([14]; 10 mg/kg group): 41
- liver concentration ([14]; (S)-CCZ dose of 2 mg/kg): 0.342 µM
- liver concentration ([14]; (S)-CCZ dose of 10 mg/kg): 2.66 µM
- CC50 (Huh7.5.1 cells [3]): 33400 ± 2440 nM

Molecule: Clc1ccc([C@H](c2ccccc2)N2CCNCC2)cc1 [(S)-Nor-CCZ]
- EC50 (HCV-Luc [1]; [19]): 34 ± 12 nM
- EC90 (HCV-Luc [1]; [20]): 578 ± 99 nM
- T1/2 compared to (S)-CCZ (in words) [15]: longer T1/2
- Antihistamine activity at 10 nM (H1-histamine receptor): 2.24%
- ratio of average concentration in liver to plasma ([11]; 10 mg/kg intraperitoneal): 60.7
- brain levels (in words) [11]: comparable to liver levels
- liver concentration ([14]; (S)-CCZ dose of 2 mg/kg): 3.16 µM
- liver concentration ([14]; (S)-CCZ dose of 10 mg/kg): 12.1 µM
- CC50 (Huh7.5.1 cells [3]): 9310 ± 40 nM

Molecule: CO/C1=C\C(C)=C\[C@@H](C)[C@@H](O)[C@@H](C)C/C(C)=C/C=C/[C@H](OC)[C@@H]([C@@H](C)[C@@H](O)[C@H](C)[C@@]2(O)C[C@@H](O)[C@H](C)[C@@H](C(C)C)O2)OC1=O [Bafilomycin A1]
- inhibitory kinetics, time-of-addition profile (HCV-Luc [9]): only showed significant inhibitory effect when added during the first 2 hours of synchronous entry
- effect on viral level, time of addition (HCV-Luc [9]): no effect on viral level

Molecule: CC(C)(C)NC(=O)N[C@H](C(=O)N1C[C@H]2[C@@H]([C@H]1C(=O)NC(CC1CCC1)C(=O)C(N)=O)C2(C)C)C(C)(C)C (stereo partly shown) [Boceprevir]
- CalcuSyn CI value (HCV-Luc [16]): 0.691 ± 0.114
- MacSynergy Log volume (HCV-Luc [16]): +++ (strong synergy (log volume ≥ 9))

Molecule: O=C(O)COCCN1CCN(C(c2ccccc2)c2ccc(Cl)cc2)CC1 (stereo not shown) [Cetirizine]
- anti-HCV activity (in words) (HCV-Luc [1]): not active

Molecule: CN1CCN(C(c2ccccc2)c2ccccc2)CC1 [Cyclizine]
- lower activity than CCZ (HCV-Luc [1]; relative to CCZ): 10 fold

Molecule: COC(=O)N[C@H](C(=O)N1CCC[C@H]1c1nc(-c2ccc(-c3ccc(-c4c[nH]c([C@@H]5CCCN5C(=O)[C@@H](NC(=O)OC)C(C)C)n4)cc3)cc2)c[nH]1)C(C)C [Daclatasvir]
- CalcuSyn CI value (HCV-Luc [16]): 0.427 ± 0.142
- MacSynergy Log volume (HCV-Luc [16]): +++ (strong synergy (log volume ≥ 9))

Molecule: NCCc1c[nH]cn1 [Histamine]
- anti-HCV activity (in words) (HCV-Luc [1]): no anti-HCV activity; also recorded: no effect on HCV infection

Molecule: O[C@H]1[C@H]2c3cc4c(cc3CN3CCC(=C[C@@H]1O)[C@H]23)OCO4 [Lycorine-HCl, reference compound]
- EC50 [5]: 40.6 nM
- CC50 [8]: > 31600 nM

Molecule: NC(=O)c1ncn([C@@H]2O[C@H](CO)[C@@H](O)[C@H]2O)n1 [Ribavirin]
- CalcuSyn CI value (HCV-Luc [16]): 0.630 ± 0.106
- MacSynergy Log volume (HCV-Luc [16]): +++ (strong synergy (log volume ≥ 9))

Molecule: CC(C)OC(=O)[C@H](C)N[P@](=O)(OC[C@H]1O[C@@H](n2ccc(=O)[nH]c2=O)[C@](C)(F)[C@@H]1O)Oc1ccccc1 [Sofosbuvir]
- CalcuSyn CI value (HCV-Luc [16]): 0.362 ± 0.075
- MacSynergy Log volume (HCV-Luc [16]): +++ (strong synergy (log volume ≥ 9))
- inhibitory kinetics, time-of-addition profile (HCV-Luc [9]): inhibited HCVcc infection when added at all the time points except during the attachment stage
- effect on viral level, time of addition (HCV-Luc [9]): no effect on viral level

Molecule: CCC[C@H](NC(=O)[C@@H]1[C@H]2CCC[C@H]2CN1C(=O)[C@@H](NC(=O)[C@@H](NC(=O)c1cnccn1)C1CCCCC1)C(C)(C)C)C(=O)C(=O)NC1CC1 [Telaprevir]
- CalcuSyn CI value (HCV-Luc [16]): 0.426 ± 0.138
- MacSynergy Log volume (HCV-Luc [16]): +++ (strong synergy (log volume ≥ 9))

Molecule: NC(=O)COCCN1CCN(C(c2ccccc2)c2ccc(Cl)cc2)CC1 (stereo not shown) [cetirizine amide]
- EC50 (HCV-Luc [1]; [19]): 103 nM

Molecule: Clc1ccc(Cn2c(CN3CCCC3)nc3ccccc32)cc1 [clemizole]
- anti-HCV activity (in words) (HCV-Luc [1]): much less potent activity

Molecule: CN1CCCN(C(c2ccccc2)c2ccc(Cl)cc2)CC1 (stereo not shown) [homochlorcyclizine]
- EC50 (HCV-Luc [1]; Hepatitis C virus): ~50 nM
- selectivity ratio (HCV-Luc [1]): 318 to 924

Molecule: OCCOCCN1CCN(C(c2ccccc2)c2ccc(Cl)cc2)CC1 (stereo not shown) [hydroxyzine]
- EC50 (HCV-Luc [1]; Hepatitis C virus): ~50 nM
- selectivity ratio (HCV-Luc [1]): 318 to 924

Molecule: Clc1ccc(C(c2ccccc2)N2CCNCC2)cc1 (stereo not shown) [nor-CCZ, nor-chlorcyclizine]
- half-life [17]: > 1.67 h
- anti-HCV activity (in words) (HCV-Luc [1]): comparable to that of CCZ
- selectivity ratio (HCV-Luc [1]): 188
- T1/2 in mice (microsomes) relative to CCZ [18]: more than fourfold longer
- cytotoxicity compared with CCZ (in words) (Huh7.5.1 cells [3]): higher cytotoxicity

Molecule: IFN-α
- CalcuSyn CI value (HCV-Luc [16]): 0.609 ± 0.128
- MacSynergy Log volume (HCV-Luc [16]): +++ (strong synergy (log volume ≥ 9))
